# Results from US20180353482A1, “MIRABEGRON FOR THE TREATMENT OF RETINAL DISEASES” (SORBONNE UNIVERSITE, priority 2015, published 2018).
# Entries after “also recorded” stand apart in the source; their conditions may differ.
# Columns and labels:
# Assay type in all cases: cell-based, porcine
# [1] = system: RPE cells; experiment: Alkalinisation and measurement of lysosomal pH (pHL) of RPE cells treated with tamoxifen
# [2] = system: cathepsin D; experiment: Cathepsin D activity measurement in RPE cells treated with concanamycin; settings: FIG. 2
# Protocol: (§1) Pigs' eyes are delivered to Institut de la Vision in a cold medium from a local slaughterhouse. The eyes are dissected so as to remove the anterior segment of the eye, the vitreous body and the neural retina. The eyeballs are then washed twice with PBS, filled with trypsin (0.25% in PBS) and incubated at 37° C. for 1 hr15. The RPE cells are then retrieved by repeated pipetting, centrifuged to remove the trypsin, and resuspended in DMEM culture medium supplemented with 20% foetal calf serum (DMEM20% FCS). The cells of each eye are then inoculated in a 6 cm diameter Petri dish, cultured in an atmosphere containing 5% CO2 at 37° C., and the culture medium is replaced after 24 hours and 4 days in vitro. After one week, the cells reach confluency and can then be passaged.
# After one week in culture, the cells are treated with trypsin and transferred into 3.5 cm diameter Petri dishes at a cell density of 1.5×10^5 cells/cm^2 in DMEM2% FCS. After 24 hours, the cells are treated with 20 nM of concanamycin so as to inhibit the activity of cathepsin D, as well as with a beta-adrenergic agonist. After 24 hours of treatment, the cells are washed with PBS and then transferred into an extraction buffer on ice. The cell extract is centrifuged at 2000 rpm at 4° C. for 10 minutes and the supernatant corresponding to the cytosolic part is frozen at −80° C. until the measurement of the enzyme activity. The activity of cathepsin D is measured using the Anson method (J Gen Physiol. 1938, 22(1):79-89) that we adapted to our experimental schedule. In brief, the cytosolic extract is incubated for 10 minutes at 37° C. in a haemoglobin solution (2.5% in 400 mM of citrate buffer at pH 2.8). The reaction is stopped by adding 5% trichloroacetic acid and the mixture is centrifuged. The optical density of the supernatant containing the breakdown products of haemoglobin is measured at 280 nm. The absorbance is corrected by subtracting that of the control, prepared as above but by adding haemoglobin after stopping the enzymatic reaction. One unit of cathepsin D is then defined as being the quantity of enzyme required to induce a change of absorbance of 1 to 280 nm for 60 minutes of incubation using the experimental conditions described hereinabove. The protein concentration of the cell lysates is measured according to the Bradford method so as to normalise the results.
# Cathepsin D is the lysosomal proteolytic enzyme mainly present in the retinal pigment epithelium involved in photoreceptor outer segment digestion. The activity thereof is dependent on the protonation of the amino acid aspartic acid of the active site thereof and on the conformation thereof, which both require an acidic environment. […]
# [3] = system: RPE cells; experiment: In vitro model of lipofuscin accumulation in RPE (oxidised photoreceptor outer segments); settings: FIG. 3
# Protocol: as §1, with “The cells of each eye are then inoculated in a 6 cm diameter Petri dish, cultured in an atmosphere containing 5% CO2 at 37° C., and the culture medium is replaced after 24 hours and 4 days in vitro. After one week, the cells reach confluency and can then be passaged.” left out
# In order to induce an accumulation of lipofuscin type material in the RPE cells, the latter are treated 3 times per week with 5×10^6 POS-ox in DMEM20% FCS containing 2.5% of sucrose for two weeks. […] The autofluorescence induced by the accumulation of lipofuscin is measured using a plate reader (excitation at 480 nm and emission between 500 and 700 nm corresponding to the emission spectrum of lipofuscin).
# In order to verify whether the different beta-adrenergic agonists are capable of also acting upon lipofuscin accumulation, we also tested them in a cell model wherein this accumulation is induced by treating RPE cells with oxidised OS by UV exposure every two days. […] The lipofuscin accumulation was measured after two weeks of co-treatment by measuring the autofluorescence of the cells.
# [4] = RPE cells with 20 nM concanamycin, 24 hours of treatment
smiles,measurement,setting,value
CC/C(=C(\c1ccccc1)c1ccc(OCCN(C)C)cc1)c1ccccc1 [tamoxifen],increase in the lysosomal pH,"[1]; 15 μM tamoxifen, in 20 minutes",~1 pH unit
C/C=C/[C@H]1O[C@@](O)([C@@H](C)[C@H](O)[C@H](C)[C@H]2OC(=O)/C(OC)=C/C(C)=C/[C@@H](C)[C@@H](O)[C@@H](CC)[C@@H](O)[C@H](C)C/C(C)=C/C=C/[C@@H]2OC)C[C@@H](O)[C@@H]1C [concanamycin],cathepsin D activity,[2]; [4],0.013 unit/ml of enzyme/min/μg of proteins
"C[C@H](Cc1ccc2c(c1)OC(C(=O)[O-])(C(=O)[O-])O2)NC[C@H](O)c1cccc(Cl)c1.[Na+].[Na+] [CL-316,243]",concentration from which effective on re-acidification of the lysosomal pH,"[1]; cells treated with 15 μM tamoxifen, FIG. 1",20 nM
"Nc1nc(CC(=O)Nc2ccc(CCNC[C@H](O)c3ccccc3)cc2)cs1 [mirabegron, (R)-2-(2-aminothiazol-4-yl)-4′-[2-[(2-hydroxy-2-phenylethyl)amino]ethyl]acetic acid anilide]",effect on lysosomal pH (in words),"[1]; 1 pM, FIG. 1",lowers the lysosomal pH
same,effect on lipofuscin accumulation / photoreceptor outer segment digestion (in words),"[3]; RPE cells, two weeks of treatment",significantly reduce the accumulation of lipofuscin; also recorded: reduces the accumulation of lipofuscin
same,reduction of the accumulation of lipofuscin by RPE cells (autofluorescence),"[3]; agonist at 10 μM, two weeks of co-treatment with oxidised outer segments, versus DMSO control",~20%
same,restoration of cathepsin D activity (in words),[2]; RPE cells treated with concanamycin,significantly restores the activity of cathepsin D
same,cathepsin D activity,[2]; [4],0.040 unit/ml of enzyme/min/μg of proteins
same,multiplication of cathepsin D activity compared to negative control (concanamycin),[2]; [4],3 fold
